Legend:
[1] = system: U937 cell line (human histiocytic lymphoma cell line); assay: U937 cell viability assay (TNF-α + Z-VAD-FMK induced necroptosis); assay type: cell-based; conditions: Homo sapiens, U-937; U937 cells, hTNF-α 0.1 μg/mL + Z-VAD-FMK 50 μM, 20 hours, CellTiter-Glo
Method: U937 cell line (human histiocytic lymphoma cell line): purchased from ATCC (American Type Culture Collection) Cell Bank, cultured in a 5% CO2, 37° C. incubator, and RPMI 1640 medium which contains L-glutamine, 1.5 g/L sodium bicarbonate, 2.383 g/L HEPES solution, 0.11 g/L sodium pyruvate and 4.5 g/L glucose, plus 10% fetal bovine serum (FBS) was used. • RPMI 1640 medium: GIBCO, Cat #A10491-01; • Fetal bovine serum (FBS): GIBCO, Cat #10099-141C; • Dimethyl sulfoxide (DMSO): Sigma, Cat #D2650; • Recombinant Human TNF-alpha Protein (hTNF-α): R&D system, Cat #210-TA-100; • Pan-Caspase inhibitor (Z-VAD-FMK): Selleckchem, Cat #S7023; • CellTiter-Glo 2.0 Cell Viability Assay kit: Promega, Cat #G9242; • Microwell plate reader: Envision, Perkin Elmer; • 96-well plate: Corning, Cat #3917.
The U937 cells at the logarithmic phase were taken out, centrifuged to remove the medium, washed with PRMI 1640 medium containing 1% FBS, and diluted with 1% FBS-containing RPMI 1640 medium to 2.5×10^5 cells/ml, inoculated at 70 μL/well into a 96-well plate, i.e., 1.75×10^4 cells/well. The plate was cultured in a 5% CO2, 37° C. cell incubator. After incubating for 1 hour, the test compound was diluted to the corresponding concentrations using DMSO with 3-fold serial dilution, then the corresponding concentration of DMSO diluted solution was diluted into 1% FBS-containing RPMI 1640 medium, and 10 μL/well of the diluted test compound with different concentrations (final concentration of test compound was 1.0, 0.333, 0.111, 0.037, 0.012, 0.004, 0.0014 and 0.0005 μM, while final concentration of DMSO was 0.3%) or 10 μL/well control solution (3% DMSO) were added to the cell culture system respectively, with the total volume being 80 μL/well; Then 10 μL of Z-VAD-FMK solution diluted with 1% FBS-containing RPMI 1640 medium (final concentration of 50 μM) or 10 μL of control solution (2.5% DMSO) was added to each well, with the total volume being 90 μL/well. The plate was incubated in a 5% CO2, 37° C. cell culture incubator for 1 hour.
After being cultured for 1 hour, 10 μL of human recombinant TNF-α protein diluted with 1% FBS-containing RPMI 1640 medium (final concentration of 0.1 μg/mL) or 10 μL/well control solution (1% FBS-containing RPMI 1640 medium) was added to each well. The plate was incubated in a 5% CO2, 37° C. cell culture incubator for 20 hours.
The cell culture plate was taken out from the incubator, and left to stand at room temperature for 30 minutes. Meanwhile, CellTiter-Glo viability assay kit was put from freezer to room temperature, and 50 μL of CellTiter-Glo reagent was added to all wells, the plate was shaken for 1 minutes, protected from light at room temperature for 10 minutes then read the plate on Envision to get the luminescence signal.
The 96-well plate in the dark was taken out, and the chemiluminescence was determined using the Envision microwell plate reader as the signal value of each well.
The mean signal value of the wells of the mixed solution of recombinant human TNF-alpha protein (final concentration of 0.1 μg/mL) and Pan-Caspase inhibitor (final concentration of 50 μM) was used as the lower value, and the mean signal value of the wells without stimulation was used as the upper value. According to the signal value of each well, the inhibition rate of each concentration of every compound was calculated, and the IC50 value of compound was obtained by Model 205 in XL-Fit 5.3 software (ID Business Solutions Limited).
Inhibition rate %=[(Luminescence readout of treated compound−Luminescence readout of positive control)/(Luminescence readout of negative control−Luminescence readout of positive control)]×100%, wherein

[2] = target: RIPK1 recombination protein (Homo sapiens (Human), UniProt Q13546); assay: RIPK1 kinase activity assay (ADP-Glo); assay type: biochemical; conditions: for IC50: RIPK1 kinase activity, ADP-Glo, 10 μM ATP
RIPK1 recombination protein, sequence (Q13546 other isoform, or with tags, fused parts or gaps): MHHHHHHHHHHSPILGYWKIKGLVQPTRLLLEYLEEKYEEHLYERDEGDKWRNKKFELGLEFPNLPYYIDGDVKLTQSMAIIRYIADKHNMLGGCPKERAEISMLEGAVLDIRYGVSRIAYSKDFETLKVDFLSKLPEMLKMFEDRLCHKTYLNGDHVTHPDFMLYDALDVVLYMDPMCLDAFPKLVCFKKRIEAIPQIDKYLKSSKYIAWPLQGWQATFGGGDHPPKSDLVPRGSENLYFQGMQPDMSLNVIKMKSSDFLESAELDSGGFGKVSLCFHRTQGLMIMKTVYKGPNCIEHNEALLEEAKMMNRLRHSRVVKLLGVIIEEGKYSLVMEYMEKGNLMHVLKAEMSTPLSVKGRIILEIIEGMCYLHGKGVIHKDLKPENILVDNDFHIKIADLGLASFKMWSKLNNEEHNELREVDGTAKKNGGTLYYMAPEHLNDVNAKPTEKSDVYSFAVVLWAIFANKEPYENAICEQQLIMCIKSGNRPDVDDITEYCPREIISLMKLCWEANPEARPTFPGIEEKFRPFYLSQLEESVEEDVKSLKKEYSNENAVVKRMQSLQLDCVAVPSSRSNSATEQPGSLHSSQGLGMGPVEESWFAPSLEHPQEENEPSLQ
Method: RIPK1 recombination protein: synthesized by Shanghai Medicilon Inc. under the commission by Hutchison MediPharma Limited (50 g of cell pellet was resuspended in 250 mL of lysis buffer (50 mM Tris, pH 7.5, 250 mM NaCl, 1 mM DTT, protease inhibitor 1:50), the cells were ultrasonically lysed using a sonicator (the power set to 4) on ice for 3×30 minutes; then centrifugation was carried out at 4° C., at 15,000 g for 30 minutes to clarify the suspension, the soluble pellet was resuspended into 10 mL of glutathione agarose, and incubated at 4° C. for 2 hours; then the beads were loaded into the column and washed with lysis buffer (no protease inhibitors) to baseline, and eluted with 20 mM of reduced glutathione (50 mM Tris, pH 8). The fractions identified by SDS-PAGE as containing the protein of interest were collected (10 mL of total volume), concentrated to about 5 mL and loaded into 300 mL superdex75 column (GE Healthcare) equilibrated with buffer (50 mM Tris, pH 7.5, 150 mM NaCl, 1 mM DTT, 10% glycerol, pH 7.5). RIP1 protein was eluted as a dimer from the superdex75 column. The protein concentration was determined by the Bradford assay using BSA as the standard. The yield was 12.5 mg at 0.63 mg/mL. The protein was aliquoted and frozen at −80° C. for later use.
ADP-Glo Kinase kit can be used to measure ADP level in kinase activity assay so as to distinguish the inhibitory effects of different compounds on RIPK1 kinase activity. The ADP-Glo assay was usually divided into three steps. Firstly, the kinase converted ATP to ADP and phosphorylated the substrate at the same time; secondly, ATP digestion reagent was added to degrade all ATP in the reaction system; finally, a detection reagent was added to reduce ADP to ATP, and energy from ATP was transferred to […] which thus emitting a chemical luminescence that can be detected. Assay procedure can refer to manufacture's technical manual.
(2) Reagent Preparation: • 1.33× kinase buffer: 5× kinase buffer stock (250 mM of NaCl, 150 mM of MgCl2, 2.5 mg/ml BSA (bovine serum albumin), 0.1% CHAPS (3-[(3-cholamidopropyl)-dimethyl-ammonio]-1-propane sulfonate), and 5 mM of dithiothreitol) was diluted with water to 1.33× kinase buffer; • RIPK1 enzyme solution: the kinase was dissolved in 1.33× kinase buffer to make 40 nM as the final working concentration; • ATP solution: 10 mM ATP stock solution in water was dissolved in 1.33× kinase buffer to make 10 μM as the final working concentration; • 4× compound preparation: the compound was diluted in a 3-fold gradient, and finally 4% DMSO aqueous solution containing different concentrations of the compound was obtained. The final concentrations of the test compound were 10, 3.33, 1.11, 0.37, 0.12, 0.04, 0.014, and 0.005 μM.
The assay set up two control groups, one was 100% inhibition group (no enzyme treatment), another was 0% inhibition group (no inhibitor treatment), each control group contained 8 replicate wells. 2.5 μl of serially diluted compound was added to each well of a 384-well plate, with double replicate wells, and 4% DMSO solution was added to control wells. Then 5 μl of RIPK1 enzyme solution was added to each well except 100% inhibition control, 5 ul of buffer was added to 100% inhibition control, after that, 2.5 μl of ATP solution was added to all wells, the plate was vibrated at 1000 rpm for 30 seconds to perform transient centrifuge; finally the 384-well assay plate was put in the shaking incubator, and incubated at room temperature for 3 hours. After the enzymatic reaction was completed, 5 μl of ATP depletion reagent was added to each well, the mixture was centrifuged transiently, then the 384-well assay plate was put in the shaking incubator, and incubated at room temperature for 1 hour. 5 μl of ADP detection reagent was added to each well, and the mixture was centrifuged transiently, and incubated at room temperature for 0.5 hour. […]

Cn1c(N)ncc(-c2ccc(C3(NC(=O)c4nnc(Cc5ccccc5)[nH]4)CC3)cc2)c1=O [Compound 7]
IC50 [1]: 68 nM
IC50 [2]: 39 nM

CC(C)n1ncc2cnc(C(=O)NC3(c4ccc(-c5cncn(C)c5=O)c(C(F)(F)F)c4)CC3)nc21 [Compound 24]
IC50 [1]: 161 nM
IC50 [2]: 89 nM

Cc1cc(C2(NC(=O)c3ncc4cnn(C(C)C)c4n3)CC2)ccc1-c1cncn(C)c1=O [Compound 27]
IC50 [1]: 102 nM
IC50 [2]: 46 nM

Cc1ncc(-c2ccc(C3(NC(=O)c4ncc5cnn(C(C)C)c5n4)CC3)cc2)c(=O)n1C [Compound 31]
IC50 [2]: 432 nM

CC(C)n1ncc2cnc(C(=O)NC3(c4ccc(-c5cncn(C)c5=O)cc4Cl)CC3)nc21 [Compound 32]
inhibition at 3 µM ([2]; 3 μM compound, read-out: Inhibition rate at the compound concentration of 3 μM): 82.5%

Cn1cncc(-c2ccc(C3(NC(=O)c4n[nH]c(Cc5ccccc5)n4)CC3)c(F)c2)c1=O [Compound 48]
IC50 [1]: 39 nM
IC50 [2]: 53 nM

Cn1cncc(-c2ccc(C3(NC(=O)c4nc5n(n4)[C@H](c4ccccc4)CC5)CC3)cc2)c1=O [Compound 53, (S)—N-(1-(4-(1-methyl-6-oxo-1,6-dihydropyrimidin-5-yl)phenyl)cyclopropyl)-5-phenyl-6,7-dihydro-5H-pyrrolo[1,2-b][1,2,4]triazole-2-carboxamide]
IC50 [1]: 554 nM
IC50 [2]: 121 nM

C[C@@H](c1ccccc1)n1cnc(C(=O)NC2(c3ccc(-c4cncn(C)c4=O)cc3)CC2)n1 [Compound 56, (S)—N-(1-(4-(1-methyl-6-oxo-1,6-dihydropyrimidin-5-yl)phenyl)cyclopropyl)-1-(1-phenylethyl)-1H-1,2,4-triazole-3-carboxamide]
IC50 [2]: 189 nM

C[C@H](c1ccccc1)c1nnc(C(=O)NC2(c3ccc(-c4cncn(C)c4=O)cc3)CC2)[nH]1 [Compound 57, (R)—N-(1-(4-(1-methyl-6-oxo-1,6-dihydropyrimidin-5-yl)phenyl)cyclopropyl)-5-(1-phenylethyl)-4H-1,2,4-triazole-3-carboxamide]
IC50 [2]: 531 nM

C[C@@H](c1ccccc1)c1nnc(C(=O)NC2(c3ccc(-c4cncn(C)c4=O)cc3)CC2)[nH]1 [Compound 58, (S)—N-(1-(4-(1-methyl-6-oxo-1,6-dihydropyrimidin-5-yl)phenyl)cyclopropyl)-5-(1-phenylethyl)-4H-1,2,4-triazole-3-carboxamide]
IC50 [2]: 139 nM

From patent publication US20240002388A1, “PYRIMIDINONE COMPOUNDS AND USES THEREOF” (HUTCHISON MEDIPHARMA LIMITED, priority 2020, published 2024)
